Entries after “also recorded” stand apart in the source; their conditions may differ.
tested on: Herz antibody; assay: 50 μm checkerboard of YGGFL and YPGGFL, antibody fluorescence plot; format: binding, mouse; conditions: not given

| Molecule | recognition / binding by the antibody |
| --- | --- |
| YPGGFL: peptide, SEQ ID NO:3 | does not bind significantly |

tested on: antibody 3E7; assay: 10-step binary synthesis array of 1,024 peptides, fluorescence scan after antibody 3E7 and fluoresceinated antibody; format: binding, mouse; conditions: additional binary syntheses based on peptides on phage leads

| Molecule | fluorescence signal relative to YGGFM |
| --- | --- |
| YGAFM: SEQ ID NO:19 | stronger fluorescence signals than does YGGFM |
| YGAFMQ: SEQ ID NO:18 | stronger fluorescence signals than does YGGFM |
| YGAFQ: SEQ ID NO:20 | stronger fluorescence signals than does YGGFM |

tested on: antibody 3E7; assay: not given; conditions: known from Meo et al., Proc. Natl. Acad. Sci. USA (1983) 80:4084; cited from earlier work

| Molecule | affinity of binding by antibody 3E7 |
| --- | --- |
| YGGFM: SEQ ID NO:21, the immunogen used to obtain antibody 3E7 | nanomolar affinity |

tested on: Herz antibody; assay: YGGFL/GGFL checkerboard slide exposed to Herz antibody and goat anti-mouse fluorescein conjugate; format: binding; conditions: 500×500 μm mask
Method: A first antibody, known as the Herz antibody, was applied to the surface of the slide for 45 minutes at 2 μg/ml in a supercocktail (containing 1% BSA and 1% ovalbumin also in this case). A second antibody, goat anti-mouse fluorescein conjugate, was then added at 2 μg/ml in the supercocktail buffer, and allowed to incubate for 2 hours.
Monomer-by-monomer synthesis of YGGFL and GGFL in alternate squares was performed on a slide in a checkerboard pattern and the resulting slide was exposed to the Herz antibody. This experiment and the results thereof are illustrated in FIGS. 13A, 13B, 13C, and 13D.
In FIG. 13A, a slide is shown which is derivatized with t-BOC-aminopropyl-triethoxysilane. The slide was treated with TFA to remove the t-BOC protecting group. t-BOC-6-aminocaproic acid was then coupled onto the aminopropyl groups. The aminocaproic acid serves as a spacer between the aminopropyl group and the peptide to be synthesized. The amino end of the spacer was deprotected and coupled to NVOC-Leucine. The entire slide was then illuminated with 12 mW of 325 nm broadband illumination. The slide was then coupled with NVOC-Phenylalanine and washed. The entire slide was again illuminated, then coupled to NVOC-Glycine and washed. […]
The resulting fluorescence scan is shown in FIG. 13C, and the scale for the fluorescence intensity is again given on the right. […]

| Molecule | recognition by Herz antibody |
| --- | --- |
| GGFL: tetrapeptide, SEQ ID NO:15 | not recognized |

tested on: anti-dynorphin B monoclonal antibody; assay: Dynorphin B deletion peptide array, relative binding of anti-dynorphin B monoclonal antibody by fluorescence intensity; conditions: mean ± spread over N synthesis sites
Method: The binding epitope on dynorphin B for the anti-dynorphin B antibody described above was determined by deleting various amino acids and combinations of amino acids from the overall sequence of dynorphin B. The peptides containing these various deletions were prepared on a substrate by the general protection-deprotection methods described above. Then the substrate was exposed to the anti-dynorphin B monoclonal antibody and a fluorescence image was produced as shown in FIG. 33.
From the intensity distribution contained in this plot, it was possible to determine the relative binding affinity to various of the peptides.

| Molecule | RELATIVE INTENSITY |
| --- | --- |
| F L R R Q F K V V T: deletion peptide from the dynorphin B sequence (FLRRQFKVVT) | 84.2 ± 28.2 |
| F L R R Q F K V V: deletion peptide from the dynorphin B sequence (FLRRQFKVV) | 37.4 ± 14.6 |
| F L R R Q F K V: deletion peptide from the dynorphin B sequence (FLRRQFKV) | 13.7 ± 3.0 |
| F L R R Q F K: deletion peptide from the dynorphin B sequence (FLRRQFK) | 10.2 ± 2.8 |
| F L R R Q F: deletion peptide from the dynorphin B sequence (FLRRQF) | 8.5 ± 3.4 |
| K V V T: deletion peptide from the dynorphin B sequence, SEQ ID NO:36 (KVVT) | 10.7 ± 1.8 |
| L R R Q F K V V T: deletion peptide from the dynorphin B sequence (LRRQFKVVT) | 86.9 ± 13.7 |
| Q F K V V T: deletion peptide from the dynorphin B sequence (QFKVVT) | 36.2 ± 16.0 |
| R R Q F K V V T: deletion peptide from the dynorphin B sequence (RRQFKVVT) | 98.8 ± 0.9 |

same assay, conditions: second value in parentheses

| Molecule | RELATIVE INTENSITY, value in parentheses (ADJUSTED) |
| --- | --- |
| F L R R Q F K V V T: deletion peptide from the dynorphin B sequence (FLRRQFKVVT) | (98.3 ± 1.2) |
| F L R R Q F K V V: deletion peptide from the dynorphin B sequence (FLRRQFKVV) | (30.5 ± 5.4) |

tested on: antibody 3E7; assay: Fluorescence scan of 50 μm YGGFL/PGGFL checkerboard array probed with antibody 3E7 and fluoresceinated goat anti-mouse antibody; format: binding; conditions: 2 μg/ml 3E7; 50 μm checkerboard
Method: FIG. 11 is a flow chart illustrating another example of the invention. Carboxy-activated NVOC-leucine was allowed to react with an aminated substrate. The carboxy activated HOBT ester of leucine and other amino acids used in this synthesis was formed by mixing 0.25 mmol of the NVOC amino protected amino acid with 37 mg HOBT (1-hydroxybenzotriazole), 111 mg BOP (benzotriazolyl-n-oxy-tris (dimethylamino)-phosphoniumhexa-fluorophosphate) and 86 μl DIEA (diisopropylethylamine) in 2.5 ml DMF. The NVOC protecting group was removed by uniform illumination. Carboxy-activated NVOC-phenylalanine was coupled to the exposed amino groups for 2 hours at room temperature, and then washed with DMF and methylene chloride. Two unmasked cycles of photodeprotection and coupling with carboxy-activated NVOC-glycine were carried out. The surface was then illuminated through a chrome on glass 50 μm checkerboard pattern mask. Carboxy-activated Na-tBOC-O-tButyl-L-tyrosine was then added. […]
The array of pentapeptides was probed with a mouse monoclonal antibody directed against β-endorphin. […] The surface was scanned with an epi-fluorescence microscope. […] The height of each spike in this display is linearly proportional to the integrated fluorescence intensity in a 2.5 μm pixel. […] There is little variation in the fluorescence intensity of different YGGFL squares. […]

| Molecule | binding of antibody 3E7 to surface peptide |
| --- | --- |
| Pro-Gly-Gly-Phe-Leu (PGGFL) | does not bind |

tested on: antibody 3E7; assay: 10-step binary synthesis array of 1,024 peptides, fluorescence scan after antibody 3E7 and fluoresceinated antibody; format: binding, mouse; conditions: not given
Source text: The power of the binary masking strategy can be appreciated by the outcome of a 10-step synthesis that produced 1,024 peptides. The polynomial expression for this 10-step binary synthesis was: (f+Ø)(Y+Ø)(G+Ø)(A+Ø)(G+Ø)(T+Ø)(F+Ø)(L+Ø)(S+Ø)(F+Ø)
Each peptide occupied a 400×400 μm square. A 32×32 peptide array (1,024 peptides, including the null peptide and 10 peptides of l=1, and a limited number of duplicates) was clearly evident in a fluorescence scan following side group deprotection and treatment with the antibody 3E7 and fluoresceinated antibody. Each synthesis site was a 400×400 μm square.
(x=20, y=9). […] The median value of the array was 4,800 counts.
The identity of each peptide in the array could be determined from its x and y coordinates (each range from 0 to 31) and the map of FIG. 29. The chemical units at positions 2, 5, 6, 9, and 10 are specified by the y coordinate and those at positions 1, 3, 4, 7, 8 by the x coordinate. All but one of the peptides was shorter than 10 residues. For example, the peptide at x=12 and y=3 is YGAGF (SEQ ID NO:30; […]).
It is often desirable to deduce a binding affinity of a given peptide from the measured fluorescence intensity. Conceptually, the simplest case is one in which a single peptide binds to a univalent antibody molecule. The fluorescence scan is carried out after the slide is washed with buffer for a defined time. The order of fluorescence intensities is then a measure primarily of the relative dissociation rates of the antibody-peptide complexes. If the on-rate constants are the same (e.g., if they are diffusion-controlled), the order of fluorescence intensities will typically correspond to the order of binding affinities. However, the situation is sometimes more complex because a bivalent primary antibody and a bivalent secondary antibody are used. The density of peptides in a synthesis area corresponded to a mean separation of […], which would allow multivalent antibody-peptide interactions. […] For a more complete analysis of how the present invention can be extended to the binding affinity of an immobilized ligand to a receptor, see U.S. Ser. No. 07/796,947, filed Nov. 22, 1991, and incorporated herein by reference.

| Molecule | rank of fluorescence in the 1,024 peptide array |
| --- | --- |
| YGAF: SEQ ID NO:8 | most highly fluorescent |
| YGAFF: SEQ ID NO:13 | most highly fluorescent |
| YGAFL: SEQ ID NO:6 | most highly fluorescent |
| YGAFLF: SEQ ID NO:12 | most highly fluorescent |
| YGAFLS: SEQ ID NO:4 | brightest element of the array; also recorded: most highly fluorescent |
| YGAFLSF | most highly fluorescent |
| YGAFS: SEQ ID NO:5 | most highly fluorescent |
| YGAFSF: SEQ ID NO:16 | most highly fluorescent |
| YGAL: SEQ ID NO:11 | most highly fluorescent |
| YGALS: SEQ ID NO:9 | most highly fluorescent |
| YGGFLS: SEQ ID NO:7 | most highly fluorescent |
| YGGFS: SEQ ID NO:10 | most highly fluorescent |
| YGGLS: SEQ ID NO:14 | most highly fluorescent |

tested on: not listed separately; assay: Photolysis of N-protected L-phenylalanine in solution; format: physicochemical; conditions: 5 mM H2SO4/Dioxane; 0.10 mM protected phenylalanine
Method: The photoremovable protecting groups of the present invention are readily removed. For example, the photolysis of N-protected L-phenylalanine in solution having different photoremovable protecting groups was analyzed, and the results are presented in the following table: […]

| Molecule | t1/2 in seconds, photolysis of protected L-Phe-OH |
| --- | --- |
| CC(OC(=O)NC(Cc1ccccc1)C(=O)O)c1cc2c(cc1[N+](=O)[O-])OCO2 (stereo not shown) [MeNPOC] | 0.367 min |
| O=C(NC(Cc1ccccc1)C(=O)O)OCc1ccccc1[N+](=O)[O-] (stereo not shown) [NBOC, reference compound] | 26.25 min |
| COc1cc(COC(=O)NC(Cc2ccccc2)C(=O)O)c([N+](=O)[O-])cc1OC (stereo not shown) [NVOC, reference compound] | 1.63 min |

same assay, conditions: Dioxane; 0.10 mM protected phenylalanine

| Molecule | t1/2 in seconds, photolysis of protected L-Phe-OH |
| --- | --- |
| CC(OC(=O)NC(Cc1ccccc1)C(=O)O)c1cc2c(cc1[N+](=O)[O-])OCO2 (stereo not shown) [MeNPOC] | 0.317 min |
| O=C(NC(Cc1ccccc1)C(=O)O)OCc1ccccc1[N+](=O)[O-] (stereo not shown) [NBOC, reference compound] | 21.47 min |
| COc1cc(COC(=O)NC(Cc2ccccc2)C(=O)O)c([N+](=O)[O-])cc1OC (stereo not shown) [NVOC, reference compound] | 1.83 min |
